Experimental data from ChEMBL document CHEMBL5104180, “Design, Synthesis, and Evaluation of New Sugar-Substituted Imidazole Derivatives as Selective c-MYC Transcription Repressors Targeting the Promoter G-Quadruplex” (J Med Chem, 2022).
Each block holds one compound with its values, some of them ahead of it.

What was measured:
Quadruplex DNA [1] = assay: Stabilization of c-MYC G4 quadruplex DNA Pu22 (unknown origin) assessed as change in melting temperature at 2 uM by CD spectroscopy; assay type: nucleic-acid assay
Quadruplex DNA [2] = assay: Binding affinity to c-MYC G4- quadruplex DNA Pu22 (unknown origin) assessed as binding constant by SPR analysis; assay type: nucleic-acid assay
[3] = Binding affinity to G-rich KRAS DNA (unknown origin) assessed as binding constant by SPR analysis
[4] = Binding affinity to G-rich HRAS DNA (unknown origin) assessed as binding constant by SPR analysis
[5] = Binding affinity to G-rich NRAS RNA (unknown origin) assessed as binding constant by SPR analysis
[6] = Binding affinity to human G-rich Htg22 DNA assessed as binding constant by SPR analysis
[7] = Binding affinity to Hairpin DNA (unknown origin) assessed as binding constant by SPR analysis
Quadruplex DNA [8] = assay: Binding affinity to c-MYC G4 quadruplex DNA Pu22 (unknown origin) assessed as binding constant by SPR analysis; assay type: nucleic-acid assay
RNA = assay: Binding affinity to NRAS RNA mutant (unknown origin) assessed as binding constant by SPR analysis

SMILES: CCn1c2ccccc2c2cc(-c3nc(-c4ccc(N5CCN(C)CC5)cc4)c(-c4ccc(N5CCN(C)CC5)cc4)n3-c3ccc(O[C@@H]4O[C@H](CO)[C@@H](O)[C@H](O)[C@H]4O)cc3)ccc21
ΔTm (Quadruplex DNA [1]): 15.5 °C | Kd (Quadruplex DNA [2]): 1.8 µM | Kd [3]: 12.5 µM | Kd [4]: 6.8 µM | Kd [5]: 16.9 µM | Kd [6]: > 20 µM | Kd [7]: > 20 µM | Kd (Quadruplex DNA [8]): > 20 µM | Kd (RNA): > 20 µM

SMILES: CCn1c2ccccc2c2cc(-c3nc(-c4ccc(N5CCN(C)CC5)cc4)c(-c4ccc(N5CCN(C)CC5)cc4)n3-c3ccc(OCc4ccccc4)cc3)ccc21
ΔTm (Quadruplex DNA [1]): 7.6 °C

SMILES: COc1ccc(-n2c(-c3ccc4c(c3)c3ccccc3n4Cc3cn([C@@H]4O[C@H](COC(C)=O)[C@@H](OC(C)=O)[C@H](OC(C)=O)[C@H]4OC(C)=O)nn3)nc(-c3ccc(N4CCN(C)CC4)cc3)c2-c2ccc(N3CCN(C)CC3)cc2)cc1
ΔTm (Quadruplex DNA [1]): 13.4 °C

SMILES: CCn1c2ccccc2c2cc(-c3nc(-c4ccc(N5CCN(C)CC5)cc4)c(-c4ccc(N5CCN(C)CC5)cc4)n3-c3ccc(OCCOCCO[C@@H]4O[C@H](CO)[C@@H](O)[C@H](O)[C@H]4N)cc3)ccc21 (single isomer, unassigned)
ΔTm (Quadruplex DNA [1]): 21.7 °C | Kd (Quadruplex DNA [2]): 0.8 µM | Kd [3]: 2.3 µM | Kd [4]: 2.3 µM | Kd [5]: 5.8 µM | Kd [6]: > 20 µM | Kd [7]: > 20 µM | Kd (Quadruplex DNA [8]): > 20 µM | Kd (RNA): > 20 µM

SMILES: CCn1c2ccccc2c2cc(-c3nc(-c4ccc(N5CCN(C)CC5)cc4)c(-c4ccc(N5CCN(Cc6cn([C@@H]7O[C@H](CO)[C@@H](O)[C@H](O)[C@H]7O)nn6)CC5)cc4)[nH]3)ccc21 (single isomer, unassigned)
ΔTm (Quadruplex DNA [1]): 15.8 °C | Kd (Quadruplex DNA [2]): 1.9 µM | Kd [3]: 7 µM | Kd [4]: 3.3 µM | Kd [5]: 11.8 µM | Kd [6]: > 20 µM | Kd [7]: > 20 µM | Kd (Quadruplex DNA [8]): > 20 µM | Kd (RNA): > 20 µM

SMILES: CCn1c2ccccc2c2cc(-c3nc(-c4ccc(N5CCN(C)CC5)cc4)c(-c4ccc(N5CCN(C)CC5)cc4)n3-c3ccc(OCCCOC4(C)O[C@H]5O[C@H](CO)[C@@H](O)[C@H](O)[C@H]5O4)cc3)ccc21 (single isomer, unassigned)
ΔTm (Quadruplex DNA [1]): 14.6 °C

SMILES: CCn1c2ccccc2c2cc(-c3nc(-c4ccc(N5CCN(C)CC5)cc4)c(-c4ccc(N5CCN(C)CC5)cc4)n3-c3ccc(OCCCO[C@@H]4O[C@H](COC(C)=O)[C@@H](OC(C)=O)[C@H](OC(C)=O)[C@H]4OC(C)=O)cc3)ccc21 (single isomer, unassigned)
ΔTm (Quadruplex DNA [1]): 13.7 °C

SMILES: CCn1c2ccccc2c2cc(-c3nc(-c4ccc(N5CCN(C)CC5)cc4)c(-c4ccc(N5CCN(C)CC5)cc4)n3-c3ccc(OCCCO[C@@H]4O[C@H](COC(C)=O)[C@H](OC(C)=O)[C@H](OC(C)=O)[C@H]4OC(C)=O)cc3)ccc21 (single isomer, unassigned)
ΔTm (Quadruplex DNA [1]): 10.9 °C

SMILES: CCn1c2ccccc2c2cc(-c3nc(-c4ccc(N5CCN(C)CC5)cc4)c(-c4ccc(N5CCN(C)CC5)cc4)n3-c3ccc(OCCOCCO[C@@H]4O[C@H](COC(C)=O)[C@@H](OC(C)=O)[C@H](OC(C)=O)[C@H]4NC(=O)C(F)(F)F)cc3)ccc21 (single isomer, unassigned)
ΔTm (Quadruplex DNA [1]): 14 °C

SMILES: CCn1c2ccccc2c2cc(-c3nc(-c4ccc(N5CCN(C)CC5)cc4)c(-c4ccc(N5CCN(C)CC5)cc4)n3-c3ccc(OCCOCCO[C@@H]4O[C@H](COC(C)=O)[C@@H](OC(C)=O)[C@H](OC(C)=O)[C@H]4OC(C)=O)cc3)ccc21 (single isomer, unassigned)
ΔTm (Quadruplex DNA [1]): 14.2 °C

SMILES: CCn1c2ccccc2c2cc(-c3nc(-c4ccc(N5CCN(C)CC5)cc4)c(-c4ccc(N5CCN(C)CC5)cc4)n3-c3ccc(OCCOCCO[C@@H]4O[C@H](COC(C)=O)[C@H](OC(C)=O)[C@H](OC(C)=O)[C@H]4OC(C)=O)cc3)ccc21 (single isomer, unassigned)
ΔTm (Quadruplex DNA [1]): 12.8 °C

SMILES: CCn1c2ccccc2c2cc(-c3nc(-c4ccc(N5CCN(C)CC5)cc4)c(-c4ccc(N5CCN(C)CC5)cc4)n3-c3ccc(O[C@@H]4O[C@H](COC(C)=O)[C@@H](OC(C)=O)[C@H](OC(C)=O)[C@H]4OC(C)=O)cc3)ccc21 (single isomer, unassigned)
ΔTm (Quadruplex DNA [1]): 10.7 °C

SMILES: CCn1c2ccccc2c2cc(-c3nc(-c4ccc(N5CCN(C)CC5)cc4)c(-c4ccc(N5CCN(C)CC5)cc4)n3CCOCCO[C@@H]3O[C@H](COC(C)=O)[C@@H](OC(C)=O)[C@H](OC(C)=O)[C@H]3OC(C)=O)ccc21 (single isomer, unassigned)
ΔTm (Quadruplex DNA [1]): 11.4 °C

SMILES: CCn1c2ccccc2c2cc(-c3nc(-c4ccc(N5CCN(C)CC5)cc4)c(-c4ccc(N5CCN(C)CC5)cc4)n3CCO[C@@H]3O[C@H](COC(C)=O)[C@@H](OC(C)=O)[C@H](OC(C)=O)[C@H]3OC(C)=O)ccc21 (single isomer, unassigned)
ΔTm (Quadruplex DNA [1]): 7.1 °C

SMILES: CCn1c2ccccc2c2cc(-c3nc(-c4ccc(N5CCN(C)CC5)cc4)c(-c4ccc(N5CCN(C)CC5)cc4)n3CCO[C@@H]3O[C@H](COC(C)=O)[C@H](OC(C)=O)[C@H](OC(C)=O)[C@H]3OC(C)=O)ccc21 (single isomer, unassigned)
ΔTm (Quadruplex DNA [1]): 9.3 °C

SMILES: CCn1c2ccccc2c2cc(-c3nc(-c4ccc(N5CCN(C)CC5)cc4)c(-c4ccc(N5CCN(Cc6cn([C@@H]7O[C@H](COC(C)=O)[C@@H](OC(C)=O)[C@H](OC(C)=O)[C@H]7OC(C)=O)nn6)CC5)cc4)[nH]3)ccc21 (single isomer, unassigned)
ΔTm (Quadruplex DNA [1]): 15.4 °C

SMILES: CCn1c2ccccc2c2cc(-c3nc(-c4ccc(N5CCN(C)CC5)cc4)c(-c4ccc(N5CCN(Cc6cn([C@@H]7O[C@H](COC(C)=O)[C@H](OC(C)=O)[C@H](OC(C)=O)[C@H]7OC(C)=O)nn6)CC5)cc4)[nH]3)ccc21 (single isomer, unassigned)
ΔTm (Quadruplex DNA [1]): 15.1 °C

SMILES: COc1ccc(-n2c(-c3ccc4c(c3)c3ccccc3n4Cc3cn([C@@H]4O[C@H](CO)[C@@H](O)[C@H](O)[C@H]4O)nn3)nc(-c3ccc(N4CCN(C)CC4)cc3)c2-c2ccc(N3CCN(C)CC3)cc2)cc1 (single isomer, unassigned)
ΔTm (Quadruplex DNA [1]): 10.3 °C

SMILES: COc1ccc(-n2c(-c3ccc4c(c3)c3ccccc3n4Cc3cn([C@@H]4O[C@H](CO)[C@H](O)[C@H](O)[C@H]4O)nn3)nc(-c3ccc(N4CCN(C)CC4)cc3)c2-c2ccc(N3CCN(C)CC3)cc2)cc1 (single isomer, unassigned)
ΔTm (Quadruplex DNA [1]): 12.4 °C

SMILES: COc1ccc(-n2c(-c3ccc4c(c3)c3ccccc3n4Cc3cn([C@@H]4O[C@H](COC(C)=O)[C@H](OC(C)=O)[C@H](OC(C)=O)[C@H]4OC(C)=O)nn3)nc(-c3ccc(N4CCN(C)CC4)cc3)c2-c2ccc(N3CCN(C)CC3)cc2)cc1 (single isomer, unassigned)
ΔTm (Quadruplex DNA [1]): 13.3 °C

Results, then the compound that gave them:

ΔTm (Quadruplex DNA [1]): 18.7 °C | Kd (Quadruplex DNA [2]): 1.2 µM | Kd [3]: 5.6 µM | Kd [4]: 2.8 µM | Kd [5]: 14.5 µM | Kd [6]: > 20 µM | Kd [7]: > 20 µM | Kd (Quadruplex DNA [8]): > 20 µM | Kd (RNA): > 20 µM
SMILES: CCn1c2ccccc2c2cc(-c3nc(-c4ccc(N5CCN(C)CC5)cc4)c(-c4ccc(N5CCN(Cc6cn(CCOCCO)nn6)CC5)cc4)[nH]3)ccc21

ΔTm (Quadruplex DNA [1]): 21.2 °C | Kd (Quadruplex DNA [2]): 4 µM | Kd [3]: 10.2 µM | Kd [4]: 19.1 µM | Kd [5]: > 20 µM | Kd [6]: > 20 µM | Kd [7]: > 20 µM | Kd (Quadruplex DNA [8]): > 20 µM | Kd (RNA): > 20 µM
SMILES: CCn1c2ccccc2c2cc(-c3nc(-c4ccc(N5CCN(C)CC5)cc4)c(-c4ccc(N5CCN(C)CC5)cc4)n3-c3ccc(OCCOCCOC(C)=O)cc3)ccc21

ΔTm (Quadruplex DNA [1]): 14.5 °C
SMILES: CCn1c2ccccc2c2cc(-c3nc(-c4ccc(N5CCN(C)CC5)cc4)c(-c4ccc(N5CCN(C)CC5)cc4)n3-c3ccc(O)cc3)ccc21

ΔTm (Quadruplex DNA [1]): 9.2 °C
SMILES: CCn1c2ccccc2c2cc(-c3nc(-c4ccc(N5CCN(C)CC5)cc4)c(-c4ccc(N5CCN(C)CC5)cc4)n3-c3ccc(OCCCO)cc3)ccc21

ΔTm (Quadruplex DNA [1]): 6.8 °C
SMILES: CCn1c2ccccc2c2cc(-c3nc(-c4ccc(N5CCN(C)CC5)cc4)c(-c4ccc(N5CCN(C)CC5)cc4)n3-c3ccc(OCCCOC(C)=O)cc3)ccc21

ΔTm (Quadruplex DNA [1]): 11.1 °C
SMILES: CCn1c2ccccc2c2cc(-c3nc(-c4ccc(N5CCN(C)CC5)cc4)c(-c4ccc(N5CCN(C)CC5)cc4)n3CCOC(C)=O)ccc21

ΔTm (Quadruplex DNA [1]): 11.6 °C
SMILES: CCn1c2ccccc2c2cc(-c3nc(-c4ccc(N5CCN(C)CC5)cc4)c(-c4ccc(N5CCN(C)CC5)cc4)n3CCOCCO)ccc21

ΔTm (Quadruplex DNA [1]): 10.4 °C
SMILES: CCn1c2ccccc2c2cc(-c3nc(-c4ccc(N5CCN(C)CC5)cc4)c(-c4ccc(N5CCN(C)CC5)cc4)n3CCOCCOC(C)=O)ccc21

ΔTm (Quadruplex DNA [1]): 13.4 °C
SMILES: COc1ccc(-n2c(-c3ccc4c(c3)c3ccccc3n4Cc3cn(CCOCCO)nn3)nc(-c3ccc(N4CCN(C)CC4)cc3)c2-c2ccc(N3CCN(C)CC3)cc2)cc1

ΔTm (Quadruplex DNA [1]): 16.3 °C | Kd (Quadruplex DNA [2]): 3.5 µM | Kd [3]: 12.9 µM | Kd [4]: 13.7 µM | Kd [5]: > 20 µM | Kd [6]: > 20 µM | Kd [7]: > 20 µM | Kd (Quadruplex DNA [8]): > 20 µM | Kd (RNA): > 20 µM
SMILES: CCn1c2ccccc2c2cc(-c3nc(-c4ccc(N5CCN(C)CC5)cc4)c(-c4ccc(N5CCN(C)CC5)cc4)n3CCOCCO[C@@H]3O[C@H](CO)[C@@H](O)[C@H](O)[C@H]3O)ccc21 (single isomer, unassigned)

ΔTm (Quadruplex DNA [1]): 10.3 °C
SMILES: CCn1c2ccccc2c2cc(-c3nc(-c4ccc(N5CCN(C)CC5)cc4)c(-c4ccc(N5CCN(C)CC5)cc4)n3CCOCCO[C@@H]3O[C@H](COC(C)=O)[C@H](OC(C)=O)[C@H](OC(C)=O)[C@H]3OC(C)=O)ccc21 (single isomer, unassigned)

ΔTm (Quadruplex DNA [1]): 14.9 °C
SMILES: CCn1c2ccccc2c2cc(-c3nc(-c4ccc(N5CCN(C)CC5)cc4)c(-c4ccc(N5CCN(C)CC5)cc4)n3CCOCCO[C@H]3OC(CO)C(O)[C@@H](O)[C@@H]3O)ccc21 (single isomer, unassigned)

ΔTm (Quadruplex DNA [1]): 14.7 °C
SMILES: CCn1c2ccccc2c2cc(-c3nc(-c4ccc(N5CCN(C)CC5)cc4)c(-c4ccc(N5CCN(C)CC5)cc4)n3CCO[C@@H]3O[C@H](CO)[C@@H](O)[C@H](O)[C@H]3O)ccc21 (single isomer, unassigned)

ΔTm (Quadruplex DNA [1]): 11.3 °C
SMILES: CCn1c2ccccc2c2cc(-c3nc(-c4ccc(N5CCN(C)CC5)cc4)c(-c4ccc(N5CCN(C)CC5)cc4)n3CCO[C@@H]3O[C@H](CO)[C@H](O)[C@H](O)[C@H]3O)ccc21 (single isomer, unassigned)
